Test: molar heat capacity at constant pressure; xn = mol fraction of the nth substance listed
Conditions: 101 kPa, Liquid, Small sample (50 mg) DSC

CC1=CC[C@H]2C[C@@H]1C2(C)C [(S)-2-pinene] + C=C1CCC2CC1C2(C)C
molar heat capacity at constant pressure [J/K/mol]
Conditions	x1 = 0.1002	x1 = 0.2041	x1 = 0.2997	x1 = 0.3922	x1 = 0.5012	x1 = 0.5907	x1 = 0.7026	x1 = 0.7987	x1 = 0.9002	x1 = 1
368.17 K	279.28	279.28	279.28	279.28	280.64	280.64	276.56	276.56	277.92	279.28
373.21 K	283.37	282	282	282	282	282	279.28	280.64	279.28	282
378.2 K	284.73	283.37	284.73	284.73	284.73	284.73	280.64	282	282	284.73
383.17 K	287.45	286.09	287.45	287.45	286.09	287.45	284.73	283.37	284.73	287.45
388.2 K	291.54	288.82	290.18	291.54	290.18	290.18	288.82	286.09	287.45	291.54
393.17 K	292.9	291.54	292.9	294.27	292.9	291.54	291.54	288.82	288.82	292.9
398.2 K	294.27	295.63	294.27	296.99	295.63	294.27	294.27	292.9	292.9	294.27
403.19 K	296.99	298.35	296.99	299.71	298.35	296.99	295.63	295.63	294.27	296.99
408.16 K	299.71	301.08	299.71	303.8	302.44	299.71	299.71	298.35	296.99	299.71
413.19 K	301.08	302.44	301.08	305.16	305.16	301.08	301.08	299.71	299.71	301.08
418.19 K	303.8	305.16	303.8	306.53	306.53	302.44	303.8	303.8	302.44	303.8

From the NIST ThermoML archive (doi:10.1016/j.jct.2012.09.012)
